Assay: xn = mol fraction of the nth substance listed
Details: 101.3 kPa

CC[n+]1ccn(C)c1.O=S(=O)([N-]S(=O)(=O)C(F)(F)F)C(F)(F)F + CC1COC(=O)O1
Details	viscosity [mPa·s]
288.15 K, x1 = 0.1	4.724
288.15 K, x1 = 0.2127	7.25
288.15 K, x1 = 0.3007	9.74
288.15 K, x1 = 0.4227	14.35
288.15 K, x1 = 0.5146	18.39
288.15 K, x1 = 0.6015	23.02
288.15 K, x1 = 0.658	25.85
288.15 K, x1 = 0.7004	28.44
288.15 K, x1 = 0.7601	31.76
288.15 K, x1 = 0.8098	35.48
288.15 K, x1 = 0.8657	38.62
288.15 K, x1 = 0.8868	40.67
288.15 K, x1 = 0.9533	44.93
288.15 K, x1 = 1	47.8
293.15 K, x1 = 0.1	4.184
293.15 K, x1 = 0.2127	6.34
293.15 K, x1 = 0.4227	11.98
293.15 K, x1 = 0.5146	15.03
293.15 K, x1 = 0.6015	19.33
293.15 K, x1 = 0.658	21.63
293.15 K, x1 = 0.7004	23.75
293.15 K, x1 = 0.7601	26.4
293.15 K, x1 = 0.7977	28.37
293.15 K, x1 = 0.8098	29.37
293.15 K, x1 = 0.8657	31.88
293.15 K, x1 = 0.8868	33.56
293.15 K, x1 = 0.9533	36.88
298.15 K, x1 = 0.1	3.737
298.15 K, x1 = 0.3007	7.34
298.15 K, x1 = 0.4227	10.32
298.15 K, x1 = 0.5146	12.87
298.15 K, x1 = 0.6015	16.3
298.15 K, x1 = 0.658	18.51
298.15 K, x1 = 0.7601	22.25
298.15 K, x1 = 0.7977	23.88
298.15 K, x1 = 0.8098	24.66
298.15 K, x1 = 0.8657	26.69
298.15 K, x1 = 0.8868	28.06
298.15 K, x1 = 0.9533	30.76
298.15 K, x1 = 1	32.42
303.15 K, x1 = 0.2127	4.96
303.15 K, x1 = 0.3007	6.46
303.15 K, x1 = 0.5146	11.13
303.15 K, x1 = 0.6015	14.61
303.15 K, x1 = 0.658	16.21
303.15 K, x1 = 0.7004	17.58
303.15 K, x1 = 0.7977	20.34
303.15 K, x1 = 0.8098	20.96
303.15 K, x1 = 0.8657	22.62
303.15 K, x1 = 0.8868	23.76
303.15 K, x1 = 0.9533	25.94
303.15 K, x1 = 1	27.26
308.15 K, x1 = 0.1	3.037
308.15 K, x1 = 0.2127	4.435
308.15 K, x1 = 0.3007	5.73
308.15 K, x1 = 0.5146	9.72
308.15 K, x1 = 0.658	14.09
308.15 K, x1 = 0.7004	15.35
308.15 K, x1 = 0.7977	17.84
308.15 K, x1 = 0.8098	18.26
308.15 K, x1 = 0.8657	19.38
308.15 K, x1 = 0.8868	20.35
308.15 K, x1 = 0.9533	22.14
313.15 K, x1 = 0.1	2.762
313.15 K, x1 = 0.2127	3.99
313.15 K, x1 = 0.3007	5.13
313.15 K, x1 = 0.4227	6.99
313.15 K, x1 = 0.5146	8.55
313.15 K, x1 = 0.6015	10.89
313.15 K, x1 = 0.658	12.21
313.15 K, x1 = 0.7004	13.32
313.15 K, x1 = 0.7977	15.7
313.15 K, x1 = 0.8657	17.2
313.15 K, x1 = 0.8868	17.89
313.15 K, x1 = 0.9533	19.08
318.15 K, x1 = 0.1	2.524
318.15 K, x1 = 0.2127	3.613
318.15 K, x1 = 0.4227	6.24
318.15 K, x1 = 0.5146	7.6
318.15 K, x1 = 0.658	10.64
318.15 K, x1 = 0.7601	12.82
318.15 K, x1 = 0.7977	13.74
318.15 K, x1 = 0.8098	14.09
318.15 K, x1 = 0.8657	15.18
318.15 K, x1 = 0.8868	15.85
318.15 K, x1 = 1	17.37
323.15 K, x1 = 0.1	2.318
323.15 K, x1 = 0.2127	3.292
323.15 K, x1 = 0.3007	4.173
323.15 K, x1 = 0.4227	5.6
323.15 K, x1 = 0.5146	6.79
323.15 K, x1 = 0.658	9.31
323.15 K, x1 = 0.7004	10.12
323.15 K, x1 = 0.7601	11.2
323.15 K, x1 = 0.7977	11.96
323.15 K, x1 = 0.8098	12.34
323.15 K, x1 = 0.8657	13.32
323.15 K, x1 = 0.8868	13.92
323.15 K, x1 = 0.9533	15.09
323.15 K, x1 = 1	15.34
328.15 K, x1 = 0.1	2.138
328.15 K, x1 = 0.3007	3.8
328.15 K, x1 = 0.6015	7.37
328.15 K, x1 = 0.658	8.23
328.15 K, x1 = 0.7004	8.93
328.15 K, x1 = 0.8098	10.81
328.15 K, x1 = 0.8657	11.71
328.15 K, x1 = 0.8868	12.21
328.15 K, x1 = 0.9533	13.31
328.15 K, x1 = 1	13.63
333.15 K, x1 = 0.2127	2.771
333.15 K, x1 = 0.4227	4.607
333.15 K, x1 = 0.5146	5.53
333.15 K, x1 = 0.6015	6.52
333.15 K, x1 = 0.7601	8.7
333.15 K, x1 = 0.7977	9.28
333.15 K, x1 = 0.8098	9.55
333.15 K, x1 = 0.8657	10.33
333.15 K, x1 = 0.8868	10.75
333.15 K, x1 = 0.9533	11.76
333.15 K, x1 = 1	12.17
338.15 K, x1 = 0.2127	2.558
338.15 K, x1 = 0.3007	3.195
338.15 K, x1 = 0.4227	4.205
338.15 K, x1 = 0.5146	5.03
338.15 K, x1 = 0.6015	5.88
338.15 K, x1 = 0.658	6.52
338.15 K, x1 = 0.7004	7.07
338.15 K, x1 = 0.7601	7.75
338.15 K, x1 = 0.7977	8.26
338.15 K, x1 = 0.8098	8.49
338.15 K, x1 = 0.8657	9.18
338.15 K, x1 = 0.8868	9.55
338.15 K, x1 = 0.9533	10.42
338.15 K, x1 = 1	10.88
343.15 K, x1 = 0.1	1.712
343.15 K, x1 = 0.2127	2.37
343.15 K, x1 = 0.3007	2.947
343.15 K, x1 = 0.4227	3.852
343.15 K, x1 = 0.6015	5.33
343.15 K, x1 = 0.658	5.88
343.15 K, x1 = 0.7004	6.33
343.15 K, x1 = 0.8657	8.2
343.15 K, x1 = 0.8868	8.52
343.15 K, x1 = 0.9533	9.3
343.15 K, x1 = 1	9.76
348.15 K, x1 = 0.3007	2.729
348.15 K, x1 = 0.4227	3.549
348.15 K, x1 = 0.5146	4.215
348.15 K, x1 = 0.6015	4.9
348.15 K, x1 = 0.7004	5.77
348.15 K, x1 = 0.7601	6.34
348.15 K, x1 = 0.7977	6.71
348.15 K, x1 = 0.8098	6.83
348.15 K, x1 = 0.8657	7.35
348.15 K, x1 = 0.8868	7.64
348.15 K, x1 = 0.9533	8.33
348.15 K, x1 = 1	8.78

CC1COC(=O)O1 (stereo not given) + CC[n+]1ccn(C)c1.O=S(=O)([N-]S(=O)(=O)C(F)(F)F)C(F)(F)F
x2 = 0
Details	viscosity [mPa·s]
288.15 K	3.063
293.15 K	2.746
298.15 K	2.476
308.15 K	2.049
313.15 K	1.879
323.15 K	1.6
328.15 K	1.486
333.15 K	1.385
343.15 K	1.213
348.15 K	1.14

CC1COC(=O)O1 (stereo not given) + FC(S(=O)(=O)[N-]S(=O)(=O)C(F)(F)F)(F)F.C(CCC)N1C(=[N+](C=C1)C)C
x2 = 0
Details	viscosity [mPa·s]
298.15 K	2.476
303.15 K	2.246
308.15 K	2.049
313.15 K	1.879
318.15 K	1.73
323.15 K	1.6
328.15 K	1.486
333.15 K	1.385
338.15 K	1.294
348.15 K	1.14

CC[n+]1ccn(C)c1C.O=S(=O)([N-]S(=O)(=O)C(F)(F)F)C(F)(F)F + CC1COC(=O)O1
viscosity [mPa·s]
Details	x1 = 0.1025	x1 = 0.203	x1 = 0.3078	x1 = 0.3994	x1 = 0.5149	x1 = 0.5825	x1 = 0.7004	x1 = 0.8032	x1 = 0.8903	x1 = 1
293.15 K	4.428	6.93	10.56	14.82	23.06	28.58	40.63	54.1	67.4	88.1
298.15 K	3.939	6.07	9.11	12.62	19.36	23.79	33.34	43.9	54.2	69.8
303.15 K	3.529	–	7.94	10.86	16.94	–	27.76	36.2	44.35	56.4
308.15 K	3.181	4.77	6.98	9.45	14.61	17.55	23.4	30.24	36.77	46.1
313.15 K	2.886	4.278	6.18	8.29	12.57	15.29	–	25.57	30.87	38.26
318.15 K	2.631	3.864	5.52	–	–	13.22	17.6	–	26.2	32.15
323.15 K	–	3.506	4.96	6.54	–	11.45	–	18.92	22.48	27.31
328.15 K	2.218	–	4.485	5.86	8.27	9.99	13.53	–	19.46	23.43
333.15 K	2.05	2.932	4.078	–	7.31	8.77	11.81	14.88	17.38	20.28
338.15 K	1.901	2.699	–	4.8	6.49	7.77	10.37	13.07	15.46	17.69
343.15 K	1.769	2.494	3.419	–	5.82	–	9.15	11.54	–	15.62
348.15 K	–	2.312	3.149	4.011	5.23	6.15	–	10.17	12.07	13.94

CC1COC(=O)O1 (stereo not given) + CC[n+]1ccn(C)c1C.O=S(=O)([N-]S(=O)(=O)C(F)(F)F)C(F)(F)F
x2 = 0
Details	viscosity [mPa·s]
293.15 K	2.746
298.15 K	2.476
303.15 K	2.246
313.15 K	1.879
318.15 K	1.73
323.15 K	1.6
328.15 K	1.486
333.15 K	1.385
338.15 K	1.294
343.15 K	1.213

— a compilation of properties of binary mixtures (doi:10.1016/j.molliq.2020.114573)
